What was measured:
Plasmodium berghei [1] = assay: Antimalarial activity against Plasmodium berghei NK65 infected in BALB/c mouse assessed as inhibition of parasitemia at 50 mg/kg, po qd for 4 days measured on 5th day after parasite inoculation by Giemsa staining based microscopy relative to control; assay type: functional; conditions: 96 h
Plasmodium berghei [2] = assay: Antimalarial activity against Plasmodium berghei NK65 infected in BALB/c mouse assessed as inhibition of parasitemia at 25 mg/kg, po qd for 4 days measured on 5th day after parasite inoculation by Giemsa staining based microscopy relative to control; assay type: functional; conditions: 96 h
Plasmodium berghei [3] = assay: Antimalarial activity against Plasmodium berghei NK65 infected in BALB/c mouse assessed as inhibition of parasitemia at 25 mg/kg, sc qd for 4 days measured on 5th day after parasite inoculation by Giemsa staining based microscopy relative to control; assay type: functional; conditions: 96 h
Plasmodium berghei [4] = assay: Antimalarial activity against Plasmodium berghei NK65 infected in BALB/c mouse assessed as inhibition of parasitemia at 50 mg/kg, po qd for 4 days measured on 7th day after parasite inoculation by Giemsa staining based microscopy relative to control; assay type: functional; conditions: 96 h
Plasmodium berghei [5] = assay: Antimalarial activity against Plasmodium berghei NK65 infected in BALB/c mouse assessed as inhibition of parasitemia at 25 mg/kg, po qd for 4 days measured on 7th day after parasite inoculation by Giemsa staining based microscopy relative to control; assay type: functional; conditions: 96 h
Plasmodium berghei [6] = assay: Antimalarial activity against Plasmodium berghei NK65 infected in BALB/c mouse assessed as inhibition of parasitemia at 50 mg/kg, sc qd for 4 days measured on 5th day after parasite inoculation by Giemsa staining based microscopy relative to control; assay type: functional; conditions: 96 h
Plasmodium berghei [7] = assay: Antimalarial activity against Plasmodium berghei NK65 infected in BALB/c mouse assessed as inhibition of parasitemia at 50 mg/kg, sc qd for 4 days measured on 7th day after parasite inoculation by Giemsa staining based microscopy relative to control; assay type: functional; conditions: 96 h
Plasmodium berghei [8] = assay: Antimalarial activity against Plasmodium berghei NK65 infected in BALB/c mouse assessed as inhibition of parasitemia at 25 mg/kg, sc qd for 4 days measured on 7th day after parasite inoculation by Giemsa staining based microscopy relative to control; assay type: functional; conditions: 96 h
Plasmodium berghei [9] = assay: Antimalarial activity against Plasmodium berghei NK65 infected in BALB/c mouse assessed as mean survival time at 50 mg/kg, po qd for 4 days (reference value: 22 +/- 3 days); assay type: functional
Plasmodium berghei [10] = assay: Antimalarial activity against Plasmodium berghei NK65 infected in BALB/c mouse assessed as mean survival time at 25 mg/kg, po qd for 4 days (reference value: 22 +/- 3 days); assay type: functional
Plasmodium berghei [11] = assay: Antimalarial activity against Plasmodium berghei NK65 infected in BALB/c mouse assessed as mean survival time at 50 mg/kg, sc qd for 4 days (reference value: 23 +/- 4 days); assay type: functional
Plasmodium berghei [12] = assay: Antimalarial activity against Plasmodium berghei NK65 infected in BALB/c mouse assessed as mean survival time at 25 mg/kg, sc qd for 4 days (reference value: 23 +/- 4 days); assay type: functional
Plasmodium berghei [13] = assay: Antimalarial activity against Plasmodium berghei NK65 infected in BALB/c mouse assessed as inhibition of parasitemia at 5 mg/kg, po qd for 4 days measured on 7th day after parasite inoculation by Giemsa staining based microscopy relative to control; assay type: functional; conditions: 96 h
Plasmodium berghei [14] = assay: Antimalarial activity against Plasmodium berghei NK65 infected in BALB/c mouse assessed as inhibition of parasitemia at 5 mg/kg, sc qd for 4 days measured on 5th day after parasite inoculation by Giemsa staining based microscopy relative to control; assay type: functional; conditions: 96 h
Plasmodium berghei [15] = assay: Antimalarial activity against Plasmodium berghei NK65 infected in BALB/c mouse assessed as inhibition of parasitemia at 5 mg/kg, sc qd for 4 days measured on 7th day after parasite inoculation by Giemsa staining based microscopy relative to control; assay type: functional; conditions: 96 h
Plasmodium berghei [16] = assay: Antimalarial activity against Plasmodium berghei NK65 infected in BALB/c mouse assessed as mean survival time at 5 mg/kg, po qd for 4 days (reference value: 22 +/- 3 days); assay type: functional
Plasmodium berghei [17] = assay: Antimalarial activity against Plasmodium berghei NK65 infected in BALB/c mouse assessed as mean survival time at 5 mg/kg, sc qd for 4 days (reference value: 23 +/- 4 days); assay type: functional; conditions: 96 h
Plasmodium berghei [18] = assay: animal or person; conditions: NK65, in Mus musculus, po, 96 h, read-out: INH
Description: Antimalarial activity against Plasmodium berghei NK65 infected in BALB/c mouse assessed as inhibition of parasitemia at 5 mg/kg, po qd for 4 days measured on 5th day after parasite inoculation by Giemsa staining based microscopy relative to control

Structure (SMILES) | inhibition in vivo at 50 mg/kg (Plasmodium berghei [1]) | inhibition in vivo at 25 mg/kg (Plasmodium berghei [2]) | inhibition in vivo at 25 mg/kg (Plasmodium berghei [3]) | inhibition in vivo at 50 mg/kg (Plasmodium berghei [4]) | inhibition in vivo at 25 mg/kg (Plasmodium berghei [5]) | inhibition in vivo at 50 mg/kg (Plasmodium berghei [6]) | inhibition in vivo at 50 mg/kg (Plasmodium berghei [7]) | inhibition in vivo at 25 mg/kg (Plasmodium berghei [8]) | MST (Plasmodium berghei [9]) | MST (Plasmodium berghei [10]) | MST (Plasmodium berghei [11]) | MST (Plasmodium berghei [12]) | inhibition in vivo at 5 mg/kg (Plasmodium berghei [13]) | inhibition in vivo at 5 mg/kg (Plasmodium berghei [14]) | inhibition in vivo at 5 mg/kg (Plasmodium berghei [15]) | mean survival time at 5 mg/kg (Plasmodium berghei [16]) | mean survival time at 5 mg/kg (Plasmodium berghei [17]) | inhibition in vivo at 5 mg/kg (Plasmodium berghei [18])
CC(C)=C[C@H](O)C[C@@H](C)[C@H]1CC[C@@]2(C)[C@@H]3[C@@H](O[C@@H]4O[C@H](CO)[C@@H](O)[C@@H](O)[C@H]4O)C=C4[C@@H](CC[C@H](O)C4(C)C)[C@]3(C)CC[C@]12C [BALSAMINOSIDE B] | 36.2% | 23.9% | 12.5% | 8.6% | 0% | 37.1% | 5.5% | 0% | 23 days | 21 days | 21 days | 20 days |  |  |  |  |  | 
CCN(CC)CCCC(C)Nc1ccnc2cc(Cl)ccc12 (centres undefined) [CHLOROQUINE] |  |  |  |  |  |  |  |  |  |  |  |  | 98% | 99% | 99% | > 40 days | > 40 days | 100%
CO[C@H]1C=C2[C@@H](CC[C@H](O)C2(C)C)[C@]2(C)CC[C@]3(C)[C@@H]([C@H](C)C[C@@H](O)C=C(C)C)CC[C@@]3(C)[C@H]12 [KARAVELAGENIN C] | 33.1% | 22.7% | 21.3% | 3.4% | 0% | 18.6% | 1% | 0% | 22 days | 21 days | 22 days | 23 days |  |  |  |  |  | 
CO[C@H]1C=C2[C@@H](CC[C@H](OC(C)=O)C2(C)C)[C@]2(C)CC[C@]3(C)[C@@H]([C@H](C)C[C@H](C=C(C)C)OC(C)=O)CC[C@@]3(C)[C@H]12 [KARAVOATE B] | 58.1% | 41.8% | 39.2% | 25.6% | 13.2% | 55.2% | 28.4% | 10.1% | 23 days | 21 days | 24 days | 20 days |  |  |  |  |  | 
CCC(=O)O[C@H]1CC[C@@H]2C(=C[C@H](OC)[C@@H]3[C@@]2(C)CC[C@]2(C)[C@@H]([C@H](C)C[C@H](C=C(C)C)OC(=O)CC)CC[C@@]32C)C1(C)C [KARAVOATE D] | 45.5% | 12.3% | 11.9% | 11.5% | 0% | 42.5% | 10.5% | 0% | 24 days | 23 days | 24 days | 22 days |  |  |  |  |  | 
